From PubChem BioAssay AID330 (DTP/NCI, 2004)
Values joined by “and” are separate entries in the source; they are usually repeats but may differ in a detail not shown here. Identical values can stand only once. Toxic doses and inconclusive results are not listed. How the source made its calls: active means survival T/C of 150% or more; inactive means T/C below 125% in these data.

Test system: P388 leukemia ip, CD2F1 mice, survival T/C
Experiment: NCI In Vivo Anticancer Drug Screen. Data for tumor model P388 Leukemia (intraperitoneal) in CD2F1 (CDF1) mice
Conditions: endpoint: median survival time, higher = longer survival
Method in brief: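 Mice carrying the transplanted tumor received test compound or vehicle. Survival was recorded in each group, and the value is the treated-group measurement divided by that of the vehicle-treated control group.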

[1] = dose: 25.0 mg/kg/injection, schedule: Q01DX005 (ip), vehicle: Klucel (hydroxypropylcellulose) (HPC)
[2] = dose: 50.0 mg/kg/injection, schedule: Q01DX005 (ip), vehicle: Klucel (hydroxypropylcellulose) (HPC)
[3] = dose: 100.0 mg/kg/injection, schedule: Q01DX005 (ip), vehicle: Klucel (hydroxypropylcellulose) (HPC)
[4] = dose: 100.0 mg/kg/injection, schedule: Q01DX009 (ip), vehicle: Klucel (hydroxypropylcellulose) (HPC)
[5] = dose: 200.0 mg/kg/injection, schedule: Q01DX009 (ip), vehicle: Klucel (hydroxypropylcellulose) (HPC)
[6] = dose: 50.0 mg/kg/injection, schedule: Q01DX009 (ip), vehicle: Klucel (hydroxypropylcellulose) (HPC)
[7] = dose: 50.0 mg/kg/injection, schedule: Q01DX009 (ip), vehicle: saline
[8] = dose: 100.0 mg/kg/injection, schedule: Q01DX009 (ip), vehicle: saline
[9] = dose: 200.0 mg/kg/injection, schedule: Q01DX009 (ip), vehicle: saline
[10] = dose: 50.0 mg/kg/injection, schedule: Q01DX009 (ip), vehicle: saline with Tween-80
[11] = dose: 100.0 mg/kg/injection, schedule: Q01DX009 (ip), vehicle: saline with Tween-80
[12] = dose: 200.0 mg/kg/injection, schedule: Q01DX009 (ip), vehicle: saline with Tween-80
[13] = dose: 60.0 mg/kg/injection, schedule: Q01DX005 (ip), vehicle: saline with Tween-80
[14] = dose: 120.0 mg/kg/injection, schedule: Q01DX005 (ip), vehicle: saline with Tween-80
[15] = dose: 240.0 mg/kg/injection, schedule: Q01DX005 (ip), vehicle: saline with Tween-80
[16] = dose: 25.0 mg/kg/injection, schedule: Q01DX001 (ip), vehicle: saline
[17] = dose: 50.0 mg/kg/injection, schedule: Q01DX001 (ip), vehicle: saline
[18] = dose: 100.0 mg/kg/injection, schedule: Q01DX001 (ip), vehicle: saline
[19] = dose: 200.0 mg/kg/injection, schedule: Q01DX001 (ip), vehicle: saline
[20] = dose: 50.0 mg/kg/injection, schedule: Q01DX009 (ip), vehicle: suspension in saline
[21] = dose: 100.0 mg/kg/injection, schedule: Q01DX009 (ip), vehicle: suspension in saline
[22] = dose: 200.0 mg/kg/injection, schedule: Q01DX009 (ip), vehicle: suspension in saline

Measured: T/C

COC1=C2CCC3c4cc(OC)c(OC)cc4CC[N+]3=C2CC1 (centres undefined)
inactive: [1] 97 % of control | [2] 99 % of control | [3] 113 % of control

C/C=C/C(=O)OC(C)CCC(CC)CCCC (centres undefined)
inactive: [4] 100 % of control | [5] 96 % of control | dose: 400.0 mg/kg/injection, schedule: Q01DX009 (ip), vehicle: Klucel (hydroxypropylcellulose) (HPC) 91 % of control

CCOC(=O)CN1CN(CCCN(C)C)CC(C)(C)C1OCC (centres undefined)
inactive: dose: 15.0 mg/kg/injection, schedule: Q01DX009 (ip), vehicle: saline with Tween-80 108 % of control | dose: 30.0 mg/kg/injection, schedule: Q01DX009 (ip), vehicle: saline with Tween-80 98 % of control | dose: 60.0 mg/kg/injection, schedule: Q01DX009 (ip), vehicle: saline with Tween-80 99 % of control

COc1ccc(/C=N\S(=O)(=O)c2ccc(OC)cc2)cc1
inactive: [6] 111 % of control | [4] 102 % of control | [5] 95 % of control

Fc1cccc(Cl)c1C(Nc1cnccn1)Nc1cnccn1
inactive: dose: 60.0 mg/kg/injection, schedule: Q01DX005 (ip), vehicle: Klucel (hydroxypropylcellulose) (HPC) 104 % of control | dose: 120.0 mg/kg/injection, schedule: Q01DX005 (ip), vehicle: Klucel (hydroxypropylcellulose) (HPC) 119 % of control

O.O.[Cu+2].[Cu+2].[NH-]CCC(=O)[N-]C(Cc1cnc[nH]1)C(=O)O.[NH-]CCC(=O)[N-]C(Cc1cnc[nH]1)C(=O)O (centres undefined)
inactive: dose: 6.25 mg/kg/injection, schedule: Q01DX005 (ip), vehicle: Klucel (hydroxypropylcellulose) (HPC) 98 % of control | dose: 12.5 mg/kg/injection, schedule: Q01DX005 (ip), vehicle: Klucel (hydroxypropylcellulose) (HPC) 97 % of control | [1] 106 % of control

OCCN1CCN(CC/C=C2\c3ccccc3Sc3ccc(Cl)cc32)CC1
inactive: dose: 3.13 mg/kg/injection, schedule: Q01DX009 (ip), vehicle: saline 102 % of control | dose: 6.25 mg/kg/injection, schedule: Q01DX009 (ip), vehicle: saline 113 % of control | dose: 11.0 mg/kg/injection, schedule: Q01DX009 (ip), vehicle: saline with Tween-80 109 % of control | dose: 50.0 mg/kg/injection, schedule: Q04DX003 (ip), vehicle: saline 88 % of control

COC(=O)N[Si](C)(C)C
inactive: [7] 93 % of control | [8] 98 % of control | [9] 100 % of control

COC1/C=C/OC2(C)Oc3c(C)c(O)c4c(O)c(c(/C=N/N5C(C)CN(Cc6ccc(O)cc6)CC5C)c(O)c4c3C2=O)NC(=O)C(C)=C/C=C/C(C)C(O)C(C)C(O)C(C)C(OC(C)=O)C1C (centres undefined)
inactive: [10] 95 % of control | [11] 99 % of control | [12] 96 % of control

CCc1c(N2CCOCC2)c(C#N)c2nc3ccccc3n2c1N1CCOCC1
inactive: [13] 99 % of control | [14] 95 % of control | [15] 98 % of control

COc1ccc2nc3c(=O)[nH]c(=O)nc-3n(CC(O)C(O)C(O)CO)c2c1 (centres undefined)
inactive: [16] 104 % of control | [17] 104 % of control | [18] 107 % of control | dose: 100.0 mg/kg/injection, schedule: Q04DX002 (ip), vehicle: saline 109 % of control

O=C(NC(Cc1ccccc1F)C(=O)O)c1ccccc1 (centres undefined)
inactive: dose: 25.0 mg/kg/injection, schedule: Q01DX009 (ip), vehicle: other 98 % of control | dose: 50.0 mg/kg/injection, schedule: Q01DX009 (ip), vehicle: other 105 % of control | dose: 100.0 mg/kg/injection, schedule: Q01DX009 (ip), vehicle: other 98 % of control

N=c1nc(-c2ccccc2)c(-c2ccccc2)nn1CC(=O)c1ccc(Br)cc1
inactive: [2] 111 % of control | [3] 94 % of control

CNC(=O)OCc1nn(-c2ccc(Cl)c(Cl)c2)c(C)c1COC(=O)NC
inactive: dose: 12.5 mg/kg/injection, schedule: Q01DX009 (ip), vehicle: distilled water + Tween-80 87 % of control and 93 % of control | dose: 25.0 mg/kg/injection, schedule: Q01DX009 (ip), vehicle: distilled water + Tween-80 86 % of control and 89 % of control | dose: 50.0 mg/kg/injection, schedule: Q01DX009 (ip), vehicle: distilled water + Tween-80 90 % of control | dose: 100.0 mg/kg/injection, schedule: Q01DX009 (ip), vehicle: distilled water + Tween-80 88 % of control | dose: 200.0 mg/kg/injection, schedule: Q01DX009 (ip), vehicle: distilled water + Tween-80 86 % of control and 87 % of control

NC(N)=N/N=C1C=C/C(=N/N=C(N)N)C/1
inactive: [16] 104 % of control | [17] 100 % of control | [18] 107 % of control | [19] 94 % of control

CCN(CC)C(=S)S
inactive: dose: 100.0 mg/kg/injection, schedule: Q04DX003 (ip), vehicle: saline sonified 95 % of control | dose: 200.0 mg/kg/injection, schedule: Q04DX003 (ip), vehicle: saline sonified 100 % of control | dose: 400.0 mg/kg/injection, schedule: Q04DX003 (ip), vehicle: saline sonified 90 % of control

Cc1[nH]oc(=O)c1C(=O)O
inactive: [7] 100 % of control | [8] 99 % of control | [9] 89 % of control

Cc1cc(C)n(C(N)=NC(=O)c2ccc([N+](=O)[O-])cc2)n1
inactive: [6] 99 % of control | [4] 101 % of control | [5] 106 % of control

CCOC(=O)COc1cc2c(cc1C(C)c1ccc(OCc3ccccc3)c(OC)c1)OCO2 (centres undefined)
inactive: [2] 87 % of control | [3] 90 % of control

C1C[N+]2(CCO1)CC[N+]1(CCOCC1)CC2
inactive: dose: 60.0 mg/kg/injection, schedule: Q01DX005 (ip), vehicle: saline 110 % of control | dose: 120.0 mg/kg/injection, schedule: Q01DX005 (ip), vehicle: saline 101 % of control | dose: 240.0 mg/kg/injection, schedule: Q01DX005 (ip), vehicle: saline 101 % of control

CC(C)C(=O)Nc1ccc(S(=O)(=O)Nc2ccc(N)cc2O)cc1
inactive: [10] 96 % of control | [11] 101 % of control | [12] 104 % of control

FS(F)(F)(F)(F)c1cccc(NC(=S)SCc2ccc3c(c2)OCO3)c1
inactive: [20] 102 % of control | [21] 106 % of control | [22] 102 % of control

O=C(Cc1ccc(CC(=O)NCCCCc2ccccc2)cc1)NCCCCc1ccccc1
inactive: [13] 88 % of control | [14] 88 % of control | [15] 86 % of control

CN(C)CCCNc1ccc(O)c2c1C(=O)c1ccccc1C2=O
inactive: dose: 12.5 mg/kg/injection, schedule: Q01DX009 (ip), vehicle: water 93 % of control | dose: 25.0 mg/kg/injection, schedule: Q01DX009 (ip), vehicle: water 97 % of control | dose: 50.0 mg/kg/injection, schedule: Q01DX009 (ip), vehicle: water 96 % of control | dose: 100.0 mg/kg/injection, schedule: Q01DX009 (ip), vehicle: water 104 % of control

NCCc1cc(=O)[nH]o1
inactive: [20] 90 % of control | [21] 90 % of control | [22] 91 % of control

Cn1nnc(C(=O)O)n1
inactive: [17] 100 % of control | [18] 100 % of control | dose: 100.0 mg/kg/injection, schedule: Q04DX003 (ip), vehicle: saline 103 % of control | [19] 101 % of control | dose: 200.0 mg/kg/injection, schedule: Q04DX003 (ip), vehicle: saline 103 % of control | dose: 400.0 mg/kg/injection, schedule: Q04DX003 (ip), vehicle: saline 100 % of control
